In US9573911B2, “Diphosphate mimetics and uses thereof” (President and Fellows of Harvard College, priority 2011, dated 2017):

What was measured:
Test in all cases: Kinase profiling, Invitrogen Z'-LYTE
Assay type in all cases: biochemical
Conditions in all cases: Table 2
[1] = target: T1, AURKA (Aurora A) (Homo sapiens, UniProt O14965)
T1 construct: purchased Invitrogen
T1 sequence (O14965 1-403): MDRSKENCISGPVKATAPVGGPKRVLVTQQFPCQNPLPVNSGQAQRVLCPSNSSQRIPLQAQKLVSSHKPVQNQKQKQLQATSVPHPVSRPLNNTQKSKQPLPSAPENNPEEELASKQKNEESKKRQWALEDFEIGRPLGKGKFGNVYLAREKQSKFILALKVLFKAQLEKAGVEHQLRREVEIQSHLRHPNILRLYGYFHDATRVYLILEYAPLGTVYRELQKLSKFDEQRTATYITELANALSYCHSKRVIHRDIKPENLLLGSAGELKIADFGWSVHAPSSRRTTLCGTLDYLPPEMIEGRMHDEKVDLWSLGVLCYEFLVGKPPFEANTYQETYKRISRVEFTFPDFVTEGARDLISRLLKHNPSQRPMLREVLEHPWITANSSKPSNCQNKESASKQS
Protocol: (§1) Kinase profiling was conducted using Invitrogen Z'-LYTE screening protocol and assay conditions found at www.invitrogen.com. Compound (2) inhibited PLK1 completely at 5 μM.

[2] = target: T2, EPHA1 (Homo sapiens, UniProt P21709)
T2 construct: purchased Invitrogen
T2 sequence (P21709 26-976): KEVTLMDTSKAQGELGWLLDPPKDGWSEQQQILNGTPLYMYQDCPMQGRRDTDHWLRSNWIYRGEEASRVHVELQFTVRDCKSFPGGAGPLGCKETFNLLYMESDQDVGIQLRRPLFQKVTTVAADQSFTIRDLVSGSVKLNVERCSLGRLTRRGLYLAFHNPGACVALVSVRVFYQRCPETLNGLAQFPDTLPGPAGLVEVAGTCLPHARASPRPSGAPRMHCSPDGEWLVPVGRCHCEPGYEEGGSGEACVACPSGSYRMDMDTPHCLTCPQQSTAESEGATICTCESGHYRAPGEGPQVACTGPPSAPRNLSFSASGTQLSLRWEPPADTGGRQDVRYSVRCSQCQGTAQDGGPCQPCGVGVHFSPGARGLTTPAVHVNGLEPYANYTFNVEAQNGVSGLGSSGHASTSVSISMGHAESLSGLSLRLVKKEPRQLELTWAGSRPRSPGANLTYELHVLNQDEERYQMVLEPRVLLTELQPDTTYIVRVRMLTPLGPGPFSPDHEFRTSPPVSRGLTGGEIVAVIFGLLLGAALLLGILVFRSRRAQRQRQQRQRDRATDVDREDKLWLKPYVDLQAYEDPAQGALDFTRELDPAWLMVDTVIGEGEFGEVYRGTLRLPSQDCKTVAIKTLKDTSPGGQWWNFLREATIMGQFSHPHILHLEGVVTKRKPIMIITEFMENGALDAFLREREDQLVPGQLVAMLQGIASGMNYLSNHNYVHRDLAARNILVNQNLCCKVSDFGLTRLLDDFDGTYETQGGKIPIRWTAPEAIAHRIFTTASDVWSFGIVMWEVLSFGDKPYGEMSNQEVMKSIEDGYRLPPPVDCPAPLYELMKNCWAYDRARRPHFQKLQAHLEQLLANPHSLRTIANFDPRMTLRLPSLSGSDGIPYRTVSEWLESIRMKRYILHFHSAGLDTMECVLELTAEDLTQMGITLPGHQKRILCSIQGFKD
Protocol: as §1

[3] = target: T3, HIPK2 (Homo sapiens, UniProt Q9H2X6)
T3 construct: purchased Invitrogen
Protocol: as §1

[4] = target: T4, MAPK12 (p38 gamma) (Homo sapiens, UniProt P53778)
T4 construct: purchased Invitrogen
T4 sequence (P53778 1-367): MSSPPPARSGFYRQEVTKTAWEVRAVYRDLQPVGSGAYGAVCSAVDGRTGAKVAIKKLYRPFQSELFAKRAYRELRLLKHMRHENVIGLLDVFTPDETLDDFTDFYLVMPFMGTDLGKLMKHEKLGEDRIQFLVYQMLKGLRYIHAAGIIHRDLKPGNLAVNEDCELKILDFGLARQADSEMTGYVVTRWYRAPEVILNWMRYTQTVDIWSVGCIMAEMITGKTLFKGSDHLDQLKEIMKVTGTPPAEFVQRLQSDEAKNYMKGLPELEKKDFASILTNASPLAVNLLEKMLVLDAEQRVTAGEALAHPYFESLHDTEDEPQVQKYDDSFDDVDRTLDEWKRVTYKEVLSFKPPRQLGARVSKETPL
Protocol: as §1

[5] = target: T5, MST1R (RON) (Homo sapiens, UniProt Q04912)
T5 construct: purchased Invitrogen
Protocol: as §1

[6] = target: T6, PHKG2 (Homo sapiens, UniProt P15735)
T6 construct: purchased Invitrogen
T6 sequence (P15735 1-406): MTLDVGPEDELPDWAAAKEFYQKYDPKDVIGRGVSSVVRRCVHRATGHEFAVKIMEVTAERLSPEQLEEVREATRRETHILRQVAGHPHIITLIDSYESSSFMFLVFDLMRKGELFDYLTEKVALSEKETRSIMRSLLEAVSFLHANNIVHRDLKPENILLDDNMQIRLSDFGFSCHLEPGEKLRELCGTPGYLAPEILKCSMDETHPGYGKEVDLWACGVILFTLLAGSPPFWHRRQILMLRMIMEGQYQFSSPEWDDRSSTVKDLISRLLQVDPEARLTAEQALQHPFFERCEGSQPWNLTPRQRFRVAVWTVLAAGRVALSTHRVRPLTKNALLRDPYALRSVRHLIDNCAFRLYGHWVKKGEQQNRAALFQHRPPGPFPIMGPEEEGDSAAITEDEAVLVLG
Protocol: as §1

T5 sequence (Q04912 25-1400): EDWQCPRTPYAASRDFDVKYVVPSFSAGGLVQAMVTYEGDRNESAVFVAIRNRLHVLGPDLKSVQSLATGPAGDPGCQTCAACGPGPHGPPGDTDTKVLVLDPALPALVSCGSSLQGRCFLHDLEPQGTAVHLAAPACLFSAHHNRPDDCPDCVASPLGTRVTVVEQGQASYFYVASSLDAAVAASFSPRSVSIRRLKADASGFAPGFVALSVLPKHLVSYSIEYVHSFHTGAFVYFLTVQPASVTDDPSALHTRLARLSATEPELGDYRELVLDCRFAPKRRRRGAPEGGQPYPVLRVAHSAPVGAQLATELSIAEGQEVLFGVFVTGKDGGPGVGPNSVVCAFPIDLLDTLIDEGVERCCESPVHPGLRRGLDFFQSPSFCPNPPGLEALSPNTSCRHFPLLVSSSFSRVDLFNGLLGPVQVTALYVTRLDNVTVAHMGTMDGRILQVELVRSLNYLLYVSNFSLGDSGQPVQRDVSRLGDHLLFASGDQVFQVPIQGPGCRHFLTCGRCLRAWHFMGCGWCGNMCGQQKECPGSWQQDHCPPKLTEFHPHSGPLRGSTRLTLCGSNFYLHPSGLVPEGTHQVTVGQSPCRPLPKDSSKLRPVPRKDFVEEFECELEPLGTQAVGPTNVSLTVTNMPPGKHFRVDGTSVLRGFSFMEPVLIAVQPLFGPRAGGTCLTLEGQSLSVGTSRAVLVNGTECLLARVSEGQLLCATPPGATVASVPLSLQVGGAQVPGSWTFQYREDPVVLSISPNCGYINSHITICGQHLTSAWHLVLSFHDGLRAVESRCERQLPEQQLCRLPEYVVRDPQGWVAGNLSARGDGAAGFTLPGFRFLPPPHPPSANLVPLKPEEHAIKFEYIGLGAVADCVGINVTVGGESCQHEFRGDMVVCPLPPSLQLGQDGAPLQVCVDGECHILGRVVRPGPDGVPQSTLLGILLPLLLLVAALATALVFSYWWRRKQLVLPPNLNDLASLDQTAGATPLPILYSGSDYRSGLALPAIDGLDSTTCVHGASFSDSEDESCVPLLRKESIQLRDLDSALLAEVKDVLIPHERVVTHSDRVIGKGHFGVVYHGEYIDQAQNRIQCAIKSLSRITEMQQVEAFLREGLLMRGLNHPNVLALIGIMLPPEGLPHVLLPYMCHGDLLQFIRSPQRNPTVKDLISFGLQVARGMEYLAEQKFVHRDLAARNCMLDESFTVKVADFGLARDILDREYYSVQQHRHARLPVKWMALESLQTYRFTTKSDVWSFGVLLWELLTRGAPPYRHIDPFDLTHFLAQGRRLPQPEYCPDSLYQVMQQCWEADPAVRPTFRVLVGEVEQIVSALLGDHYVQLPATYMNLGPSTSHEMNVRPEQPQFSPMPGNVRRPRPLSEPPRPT
T3 sequence (Q9H2X6 whole entry): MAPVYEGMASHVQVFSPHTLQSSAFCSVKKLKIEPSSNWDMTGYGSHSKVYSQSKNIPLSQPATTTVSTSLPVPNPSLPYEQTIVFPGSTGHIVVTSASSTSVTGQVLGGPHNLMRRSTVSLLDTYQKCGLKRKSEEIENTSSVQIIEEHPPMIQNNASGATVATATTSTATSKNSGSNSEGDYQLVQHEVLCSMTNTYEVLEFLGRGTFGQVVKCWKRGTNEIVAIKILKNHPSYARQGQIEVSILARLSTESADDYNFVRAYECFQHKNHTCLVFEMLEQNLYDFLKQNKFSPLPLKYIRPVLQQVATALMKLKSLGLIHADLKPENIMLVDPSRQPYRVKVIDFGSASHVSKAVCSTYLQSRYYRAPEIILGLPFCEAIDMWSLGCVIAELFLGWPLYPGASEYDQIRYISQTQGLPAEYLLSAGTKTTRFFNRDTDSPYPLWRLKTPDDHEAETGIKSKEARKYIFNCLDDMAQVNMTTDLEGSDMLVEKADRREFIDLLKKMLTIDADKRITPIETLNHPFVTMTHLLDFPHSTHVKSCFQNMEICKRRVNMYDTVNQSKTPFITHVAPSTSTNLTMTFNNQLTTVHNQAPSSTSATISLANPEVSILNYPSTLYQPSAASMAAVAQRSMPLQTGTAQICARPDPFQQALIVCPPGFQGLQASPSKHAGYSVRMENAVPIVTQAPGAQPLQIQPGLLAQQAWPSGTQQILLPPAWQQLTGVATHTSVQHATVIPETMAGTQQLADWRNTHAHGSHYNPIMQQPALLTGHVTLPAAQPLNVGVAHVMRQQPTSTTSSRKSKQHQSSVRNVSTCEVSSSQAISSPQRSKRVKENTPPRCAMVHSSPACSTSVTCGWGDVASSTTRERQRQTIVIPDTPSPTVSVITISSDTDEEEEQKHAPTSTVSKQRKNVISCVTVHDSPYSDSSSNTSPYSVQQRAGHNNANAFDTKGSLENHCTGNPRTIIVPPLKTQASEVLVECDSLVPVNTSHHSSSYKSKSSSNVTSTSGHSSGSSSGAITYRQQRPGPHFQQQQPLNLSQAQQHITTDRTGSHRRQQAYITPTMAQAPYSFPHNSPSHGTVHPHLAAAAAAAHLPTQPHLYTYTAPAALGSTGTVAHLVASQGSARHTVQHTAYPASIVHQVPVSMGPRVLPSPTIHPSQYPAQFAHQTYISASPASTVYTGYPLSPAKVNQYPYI

SMILES: COc1ccc(OC(=O)n2c(=O)oc3cc(C(C)=O)ccc32)cc1 [Compound 2]
- % Inhibition Point 1 [1]: −146%
- % Inhibition Point 2 [1]: −146%
- % Inhibition mean [1]: −146%
- % Inhibition Point 1 [2]: −62%
- % Inhibition Point 2 [2]: −107%
- % Inhibition mean [2]: −85%
- % Inhibition Point 1 [3]: −96%
- % Inhibition Point 2 [3]: −90%
- % Inhibition mean [3]: −93%
- % Inhibition Point 1 [4]: −203%
- % Inhibition Point 2 [4]: −203%
- % Inhibition mean [4]: −203%
- % Inhibition Point 1 [5]: −258%
- % Inhibition Point 2 [5]: −245%
- % Inhibition mean [5]: −252%
- % Inhibition Point 1 [6]: −360%
- % Inhibition Point 2 [6]: −308%
- % Inhibition mean [6]: −334%
